Measured values taken from patent US20040197268A1, “Method of imaging amyloid deposits using substituted rhodanine derivatives” (priority 1999, published 2004).
Several values for one entry are separate records, joined by “and”; a condition that tells them apart may be missing. Equal entries are not always repeated. Structures can show the parent of a compound that is named as a salt.

Assays:
Aβ(1-40) [1] = target: T1, Aβ(1-40) (Homo sapiens, UniProt P05067); experiment: BASST (Beta-Amyloid Self-Seeding, ThioflavinT), inhibitors of self-seeded amyloid fibril growth; format: biochemical; details: 30 μM soluble Aβ(1-40), pH 7.5, 37° C., 3 to 5 hours, thioflavin T fluorescence
T1 construct: Soluble Aβ(1-40) peptide (Bachem, Torrance, Calif.); purchased Bachem, Torrance, Calif
T1 sequence (P05067 672-711 limits assumed): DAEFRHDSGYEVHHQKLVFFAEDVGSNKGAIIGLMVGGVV
Protocol: BASST (Beta-Amyloid Self-Seeding, ThioflavinT)
(§1) An assay for inhibitors of self-seeded amyloid fibril growth
Assay Buffer—50 mM sodium phosphate, pH 7.5, 100 mM NaCl, 0.02% NaN3, 1 M urea (filter and store at 4° C.).
Soluble Aβ(1-40)—2.2 mg/mL in deionized H2O (store in aliquots at −20° C., keep on ice when thawed) will self-seed after 1 week storage. Typically, the solution should be stored until no lag phase is seen in the assay.
Final assay conditions: 30 μM soluble Aβ(1-40) in deionized water in assay buffer. Compound to be tested is dissolved in DMSO, typically 5-50 mM stock, such that the final concentration of DMSO is <1% v/v in the assay.
Assay: Reaction mixture for 50 assays (on ice) comprised of 1 μL of soluble Aβ(1-40)+13.5 μL assay buffer per assay. The following are the amounts of the components of the reaction mixture that result in each of the 50 assay wells.
1) Prepare the reaction mix above by mixing the components and storing on ice.
2) Pipet […] of reaction mixture into each of 50 wells of a polystyrene U-bottom 96-well microtiter plate (Corning 25881-96) on ice.
(§2) 3) Add 1.7 mL of diluted compound to be tested to each well in a column of eight, including solvent control. Serial 3-fold dilutions from 1 mM (100 μM final) in assay buffer−urea=7 dilutions+zero. Each 96-well plate can therefore accommodate 11 samples+1 Congo Red control (0.039-5 μM final in 2-fold steps).
4) Seal the plate with aluminum film and incubate for 10 minutes on ice.
5) Raise the temperature to 37° C. and incubate for 3 to 5 hours (depends on the lot of the peptide).
6) Remove the aluminum film and add 250 μL/well of 5 μM thioflavin T (ThT) [T-3516, Sigma-Aldrich] in 50 mM glycine-NaOH, pH 8.5. Read fluorescence on a plate reader (ex=440 nm/20 nm; em=485 nm/20 nm) within 5 minutes.

Aβ(1-40) [2] = target: T1, Aβ(1-40); experiment: BASSR (Beta-Amyloid Self-Seeding Radioassay), inhibitors of self-seeded amyloid fibril growth; format: biochemical; details: 30 μM soluble Aβ(1-40) + 125I-labeled Aβ(1-40), pH 7.5, 37° C., 3 to 5 hours, filtration
Protocol: BASSR (Beta-Amyloid Self-Seeding Radioassay)
as §1
Assay Buffer—50 mM sodium phosphate, pH 7.5, 100 mM NaCl, 0.02% NaN3, 1 M urea (filter and store at 4° C.)
Soluble Aβ(1-40) peptide (Bachem, Torrance, Calif.)—2.2 mg/mL in deionized H2O (stored in aliquots at −20° C., keep on ice when thawed) will self-seed after 1 week storage. Typically, the solution should be stored until no lag phase is seen in the assay.
^125I-labeled Aβ(1-40)—150K-350K cpm/μL in 100% acetonitrile—0.1% trifluoroacetic acid (TFA)—1% β-mercaptoethanol (aliquots stored at −20° C.). ^125I-labeled Aβ(1-40) can be made in accordance with the procedure set forth by H. Levine, III in Neurobiol. Aging, 16:755 (1995), which is hereby incorporated by reference, or this reagent may be purchased from Amersham, Arlington Heights, Ill.
Final assay conditions: 30 μM soluble Aβ(1-40) in deionized water in assay buffer+20-50K cpm ^125I-labeled Aβ(1-40) per assay. Compound to be tested is dissolved in dimethylsulfoxide (DMSO), typically 5-50 mM stock, such that the final concentration of DMSO is <1% v/v in the assay.
Assay: Reaction mixture for 50 assays (on ice) is comprised of 0.1-0.2 μL of […] ^125I-labeled Aβ(1-40)+1 μL of soluble Aβ(1-40)+13.5 μL assay buffer per assay. The following are the amounts of the components of the reaction mixture sufficient for 50 assay wells.
1) Prepare reaction mixture above by mixing components and storing on ice.
2) Pipet 14.5 μL of reaction mixture into each of 50 wells on a polypropylene U-bottom 96-well microtiter plate on ice (Costar 3794).
as §2, with “μL” for “mL”
4) Seal the plate with aluminum film (Beckman 538619) and incubate for 10 minutes on ice.
5) Raise the temperature to 37° C. and incubate for 3 to 5 hours (depending on the lot of the peptide).
6) Remove the aluminum film and add 200 μL/well of ice cold assay buffer with urea, collecting the radiolabeled fibrils by vacuum filtration through 0.2 μm pore size GVWP filters in 96-well plates (Millipore MAGV N22, Bedford, Mass.). Determine the radioactivity of the filters using standard methods well-known to those skilled in the art.

Aβ(1-42) = target: T2, Aβ(1-42) (Homo sapiens, UniProt P05067); experiment: BATYM Assay (Aβ(1-42) aggregation, Thioflavin T fluorescence); format: biochemical; details: Aβ 1-42 final concentration 100 μM, PBS pH 7.4, 37° C., 1 day, ThT fluorescence
T2 construct: Required Aβ(1-42)(California Peptide) was dried from its hexafluoroisopropanol (HFIP) stock solution; purchased California Peptide
T2 sequence (P05067 672-713 limits assumed): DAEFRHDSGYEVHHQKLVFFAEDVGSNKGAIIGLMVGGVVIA
Protocol: Required Aβ(1-42)(California Peptide) was dried from its hexafluoroisopropanol (HFIP) stock solution. The Aβ(1-42) was dissolved in dimethylsulfoxide (DMSO) and then mixed with phosphate buffered saline, (PBS) (pH 7.4). The mixed Aβ(1-42) solution was filtered with a 0.2 μm Omnipore membrane syringe filter (Millipore, Bedford, Mass.). The compound to be tested in DMSO (50 times concentrate) was put into each well (0.5 μL/well) of a 96-well plate. The Aβ(1-42) solution was added into each well (24.5 μL/well). The plate was centrifuged at 1,000 g for 5 minutes and incubated at 37° C. for 1 day (Aβ 1-42; final concentration 100 μM).
After incubation Thioflavin T (ThT) (30 μM) solution in glycine-NaOH buffer (pH 8.5, 50 mM) was added into each well (250 μL/well), fluorescence was measured (ex. 440/20 nm; em 485/20 nm) using a fluorescence plate reader. The inhibitory activity was calculated as the reduction of fluorescence with the following formula:
inhibition (%)={(F(Aβ)−F(Aβ+compound)}/{F(Aβ)−F(solvent+compound)}×100
The IC50s were calculated by a curve fitting program using the following equation. The data were obtained from two different experiments in triplicate.
x=concentration of tested compound (M),

[3] = target: T3, beta amyloid peptide Aβ(1-40) (Homo sapiens, UniProt P05067); experiment: BAPA (Beta-Amyloid Peptide Aggregation), pH 6.0; format: biochemical; details: Aβ(1-40) 33 μM, pH 6.0, 2 to 4 hours at room temperature, filtration
T3 construct: 0.5 mg/mL AP (140) peptide in 20% HFIP+0.1 μL/assay radioiodinated ^125I Aβ(1-40)
T3 sequence (P05067 672-711 limits assumed): as the sequence (P05067 672-711 limits assumed) above
Protocol: BAPA (Beta-Amyloid Peptide Aggregation)
This assay is used to provide a measure of inhibition by a compound against the aggregation behavior of the beta amyloid peptide.
The purpose of this assay is to provide a higher volume method of assaying the amount of beta amyloid aggregation using an endpoint assay based on filtration. In this assay, hexafluoroisopropanol (HFIP) is used to break down the initial amyloid peptide to a monomer state and use a concentration of 33 μM which is high enough so that aggregation will occur at pH 6.0 in several hours.
β-Amyloid Peptide Aggregation, pH 6.0 (BAPA)
In a 96-well plate (Costar 3794), we add […] 50 mM Phosphate Buffer, pH 6.0, 10 μL 0.5 mg/mL AP (140) peptide in 20% HFIP+0.1 μL/assay radioiodinated ^125I Aβ(1-40) [^125I Aβ(1-40)], and 1 μL of the compound to be tested starting at 50 mM with a concentration of DMSO <1%. Then, we incubate for 2 to 4 hours at room temperature. We stop the reaction with […] of 50 mM phosphate buffer, pH 6.0, and filter it through a 0.2 μm 96-well filter plate (Millipore MAGU N22). We wash the filter plate with 100 μL of the same phosphate buffer. Aggregation was detected on a Microbeta counter after impregnating the filters with Meltilex (1450-441) and is corrected for background.

melting point [°C] | IC50 (Aβ(1-40) [1]) | IC50 (Aβ(1-40) [2]) | IC50 (Aβ(1-42)) [µM] | IC50 [3] [µM] | Compound
> 250 |  |  |  |  | CCCCCCN(C)c1ccc(/C=C2\SC(=S)N(CCS(=O)(=O)O)C2=O)cc1 (as salt: sodium) [Example 1, (Z) 2-{5[4-(Hexyl-methyl-amino)benzylidene] 4-oxo-2-thioxo-thiazolidin-3-yl}-ethanesulfonic acid]
 | 1 µM | > 100 µM | 1.72 | 23 | CCCCCCN(C)c1ccc(/C=C2\SC(=S)N(CCS(=O)(=O)O)C2=O)cc1 [Example 1, (Z) 2-{5[4-(Hexyl-methyl-amino)benzylidene] 4-oxo-2-thioxo-thiazolidin-3-yl}-ethanesulfonic acid]
147 to 149 | 0.8 µM | > 100 µM | 2.32 | 7 | CCCCCCN(C)c1ccc(/C=C2\SC(=S)N(CCS(=O)(=O)NC)C2=O)cc1 [Example 2, (Z) 2-{5-[4-(Hexyl-methyl-amino)-benzylidene]-4-oxo-2-thioxo-thiazolidin-3-yl}-ethanesulfonic acid methylamide]
 | 0.22 µM | > 100 µM | > 100 | 30 | CCCCCCN(C)c1ccc(/C=C2\SC(=S)N(CCNC(C)=O)C2=O)cc1 [Example 14]
 | > 100 µM | > 100 µM | 3.39 | 8 | CCCCCCN(C)c1ccc(/C=C2\SC(=S)N(CS(=O)(=O)O)C2=O)cc1 [Example 15, (Z) {5-[4-(n-Hexylmethylamine)-benzylidene]-4-oxo-2-thioxo-thiazolidin-3-yl}-methanesulfonic acid]
 | 2 µM |  | 2.04 | > 100 | CCCCN(CCCC)c1ccc(/C=C2\SC(=S)N(Cc3nnn[nH]3)C2=O)cc1 [Example 20, (Z) 5-(4-Dibutylamino-benzylidene)-3(H-tetrazol-5-ylmethyl)-2-thioxo-thiazolidin-4-one]
219 to 222 |  | > 100 µM | 2.91 | > 100 | CCCCN(CCCC)c1ccc(/C=C2\SC(=S)N(CC(=O)NS(C)(=O)=O)C2=O)cc1 [Example 21, (Z) N-{2-[5-(4-Dibutylamino-benzylidene)-4-oxo-2-thioxo-thiazolidin-3-yl]-acetyl}-methanesulfonamide]
222 | 1 µM and 0.8 µM | 6.5 µM and 10 µM and 6 µM | 3.84 |  | O=C(CN1C(=O)/C(=C/c2ccc(N3CC[C@@H]4CCCC[C@H]4C3)cc2)SC1=S)NS(=O)(=O)c1ccccc1 [Example 24, (Z) N-(2-{5-[(4aS,8aR)-4(Octahydro-isoquinolin-2-yl)benzylidene]-4-oxo-2-thioxo-thiazolidin-3-yl}-acetyl)-benzenesulfonamide]
125 | 0.6 µM and 0.5 µM | 6 µM | 2.38 |  | CCCCN(CCCC)c1ccc(/C=C2\SC(=S)N(CC(=O)NS(=O)(=O)c3ccc(F)cc3)C2=O)cc1 [Example 25, (Z) N-{2-[5-(4-Dibutylamino-benzylidene)-4-oxo-2-thioxo-thiazolidin-3-yl]-acetyl}-4-fluoro-benzenesulfonamide]
191 to 192 |  | 6.1 µM and 10 µM | 2.14 |  | CCCCN(CCCC)c1ccc(/C=C2\SC(=S)N(CCS(=O)(=O)NC(=O)c3ccc(F)cc3)C2=O)cc1 [Example 26, (Z) 2-[5-(4-Dibutylamino-benzytidene)-4-oxo-2-thioxo-thiazolidin-3-yl]-ethanesulfonic acid 4-fluoro-benzoylamide]
 | 1 µM | > 100 µM | 2.55 | 46 | O=C1/C(=C/c2ccc(N3CCC4CCCCC4C3)cc2)SC(=S)N1Cc1cc(=O)c(O)co1 (stereo not drawn) [Example 32, (Z) 3-(5-Hydroxy-4-oxo-4H-pyran-2-ylmethyl)-5-[4-(octahydro-isoquinolin-2-yl)benzylidene]-2-thioxo-thiazolidin-4-one]
 | 0.4 µM | 15 µM | 3.31 | > 60 | CCCC1CCN(c2ccc(/C=C3\SC(=S)N(Cc4nnn[nH]4)C3=O)cc2)CC1 [Example 35]

Compound | melting point [°C] | IC50 (Aβ(1-40) [1]) | IC50 (Aβ(1-40) [2]) | IC50 (Aβ(1-42)) [µM] | IC50 [3] [µM]
(Z) 2-[5-(4-Hexyl-methyl-amino-benzylidene)-4-oxo-2-thioxo-thiazolidin-3-yl]-ethanesulfonic acid 4-fluoro-benzoylamide [Example 40] |  |  |  | 2.84 | 
